From PubChem BioAssay AID2060500 (Molecular Pharmacology Branch, DTP, NCI, 2025)

Tested on: 596521-263-R-J1-PDC complex spheroids, viability % of control
Experiment: Anticancer human tumor 596521-263-R-J1-PDC patient-derived soft tissue sarcoma cell line growth inhibition [GQUAD]
Conditions: for IC50: curve of first compound; for viability, T/C: stronger effect = lower value
Source text: DNA G-quadruplex Stabilizer Agents in Combinations in Complex Spheroids
A high-throughput screen of multi-cell type tumor spheroids was designed to identify active combinations of DNA G-quadruplex stabilizer agents and targeted small molecules. Complex spheroids include a stromal component modeled by human endothelial cells (HUVEC) and fibroblasts modeled by human mesenchymal stem cells (MSCs). The concentration ranges selected for each drug and investigational agent were based upon clinically achievable concentrations if the clinical Cmax of the agent was known.
Compounds. The drugs and investigational agents: pidnarulex (CX-5461; NSC782164), APTO-253 (NSC789042), BRACO-19 (NSC847499), peposertib (NSC802822), ceralasertib (NSC780249), elimusertib (NSC800525), camonsertib (NSC841442), AZD-1390 (NSC803789), olaparib (NSC753686), talazoparib (NSC767125), ART-558 (NSC835418), sotorasib (NSC818433), MRTX-1133 (NSC836407), SN-38 (NSC673596), topotecan (NSC609699), etoposide (NSC141540), doxorubicin (NSC123127), gemcitabine (NSC613327), 5-fluorouracil (NSC19893), paclitaxel (NSC125973), vemurafenib (NSC761431), panobinostat (NSC761190), R-306465 (JNJ-16241199; NSC773264), adavosertib (NSC754352), TP-3654 (NSC805149), carboplatin (NSC241240), KSQ-4279 (NSC840948), and staurosporine (NSC755774) were obtained from the National Cancer Institute (NCI) Developmental Therapeutics Program Chemical Repository (34). The FDA-approved anticancer drug set is available from the NCI Developmental Therapeutics Program. […] The stock solutions were prepared in dimethyl sulfoxide (DMSO, Sigma-Aldrich, St. Louis, MO, cat. D2650) at 800-fold the tested concentration and stored at -70 degrees C prior to their use. All drugs and investigational agents were tested over a range starting from a high concentration at or near the clinical Cmax and decreasing in half-log increments. If the clinical Cmax for an agent had not been determined, the highest concentration tested was 10 microM.
2.3 Cell Culture. All cells were maintained in an incubator at 37 degrees C and 5% CO2 with 95% humidity. The PDC lines were cultured according to standard operating procedures established by the NCI PDMR. All PDCs were thawed and cultured in Matrigel-coated flasks prepared with a working solution of 1X Ham's F-12 nutrient mix, without supplementation (Invitrogen, cat. 11765054), 100 U/mL penicillin-streptomycin (Invitrogen, cat. 15140122), and 2.5% Matrigel (Corning Inc., cat. 354248) for the first three passages. The 857933-349-R-J2-PDC line was cultured in 6C/Colon 1B media, which includes advanced DMEM/F-12 (Thermo Fisher Scientific, cat. 12634028), 10 mM HEPES (Thermo Fisher Scientific, cat. 15630080), 1X GlutaMAX supplement (Thermo Fisher Scientific, cat. 35050061), 0.1 mg/mL primocin (InvivoGen, cat. ant-pm-2), 10% defined fetal bovine serum, heat inactivated (HyClone Laboratories Inc., cat. SH30070.03HI), 50% L-WRN conditioned media (ATCC, cat. CRL-3276), 1.25 mM N-Acetyl-L-cysteine (Sigma-Aldrich, cat. A9165), 10 mM nicotinamide (Sigma-Aldrich, cat. N0636), 1X B-27 supplement (Thermo Fisher Scientific, cat. 17504044), 1X N-2 supplement (Thermo Fisher Scientific, cat. 17502048), 10 microM Y-27632 dihydrochloride (Tocris Bioscience, cat. 1254), and 50 ng/mL human EGF recombinant protein (Thermo Fisher Scientific, cat. PHG0311). The 485176-168-R4-J1-PDC line was cultured in Panc media, which includes all 6C/Colon 1B media components plus 100 ng/mL human FGF-10 (Thermo Fisher Scientific, cat. 100-26), 500 nM SB-431542 (Selleckchem, cat. S1067), and gastrin (Tocris, cat. 3006).
[…]

[1] = second compound 0.0316 µM, first compound 0.0316 µM
[2] = second compound 0.0316 µM, first compound 0.1 µM
[3] = second compound 0.0316 µM, first compound 0.316 µM
[4] = second compound 0.0316 µM, first compound 1 µM
[5] = second compound 0.0316 µM, first compound 3.16 µM
[6] = second compound 0.0316 µM, first compound 10 µM
[7] = second compound 0.1 µM, first compound 0.0316 µM
[8] = second compound 0.1 µM, first compound 0.1 µM
[9] = second compound 0.1 µM, first compound 0.316 µM
[10] = second compound 0.1 µM, first compound 1 µM
[11] = second compound 0.1 µM, first compound 3.16 µM
[12] = second compound 0.1 µM, first compound 10 µM
[13] = second compound 0.316 µM, first compound 0.0316 µM
[14] = second compound 0.316 µM, first compound 0.1 µM
[15] = second compound 0.316 µM, first compound 0.316 µM
[16] = second compound 0.316 µM, first compound 1 µM
[17] = second compound 0.316 µM, first compound 3.16 µM
[18] = second compound 0.316 µM, first compound 10 µM
[19] = second compound 1 µM, first compound 0.0316 µM
[20] = second compound 1 µM, first compound 0.1 µM
[21] = second compound 1 µM, first compound 0.316 µM
[22] = second compound 1 µM, first compound 1 µM
[23] = second compound 1 µM, first compound 3.16 µM
[24] = second compound 1 µM, first compound 10 µM
[25] = second compound 3.16 µM, first compound 0.0316 µM
[26] = second compound 3.16 µM, first compound 0.1 µM
[27] = second compound 3.16 µM, first compound 0.316 µM
[28] = second compound 3.16 µM, first compound 1 µM
[29] = second compound 3.16 µM, first compound 3.16 µM
[30] = second compound 3.16 µM, first compound 10 µM
[31] = second compound 10 µM, first compound 0.0316 µM
[32] = second compound 10 µM, first compound 0.1 µM
[33] = second compound 10 µM, first compound 0.316 µM
[34] = second compound 10 µM, first compound 1 µM
[35] = second compound 10 µM, first compound 3.16 µM
[36] = second compound 10 µM, first compound 10 µM
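Further: spheroids exposed to drugs for 7 days before viability reading.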

C=CC(=O)N1CCN(c2nc(=O)n(-c3c(C)ccnc3C(C)C)c3nc(-c4c(O)cccc4F)c(F)cc23)C(C)C1 (centres undefined) + Cc1[nH]c2ccc(F)cc2c1-c1nc2c3cccnc3c3ncccc3c2[nH]1
IC50 (second compound 0.0316 µM): > 10 µM | IC50 (second compound 0.1 µM): > 10 µM | IC50 (second compound 0.316 µM): > 10 µM | IC50 (second compound 1 µM): > 10 µM | IC50 (second compound 3.16 µM): > 10 µM | IC50 (second compound 10 µM): > 10 µM | viability, T/C [1]: 91.6% | viability, T/C [2]: 102% | viability, T/C [3]: 98% | viability, T/C [4]: 100% | viability, T/C [5]: 103% | viability, T/C [6]: 69.3% | viability, T/C [7]: 97% | viability, T/C [8]: 97.1% | viability, T/C [9]: 95.2% | viability, T/C [10]: 107% | viability, T/C [11]: 90.8% | viability, T/C [12]: 67.8% | viability, T/C [13]: 91.5% | viability, T/C [14]: 108% | viability, T/C [15]: 89.5% | viability, T/C [16]: 99.7% | viability, T/C [17]: 89.8% | viability, T/C [18]: 67% | viability, T/C [19]: 95.6% | viability, T/C [20]: 82.5% | viability, T/C [21]: 99.8% | viability, T/C [22]: 97.5% | viability, T/C [23]: 90.8% | viability, T/C [24]: 75.8% | viability, T/C [25]: 90.7% | viability, T/C [26]: 88.2% | viability, T/C [27]: 91.9% | viability, T/C [28]: 95.1% | viability, T/C [29]: 90.8% | viability, T/C [30]: 73.3% | viability, T/C [31]: 71% | viability, T/C [32]: 72% | viability, T/C [33]: 83.1% | viability, T/C [34]: 72.1% | viability, T/C [35]: 85.3% | viability, T/C [36]: 56.4%

O=C(NO)c1cnc(N2CCN(S(=O)(=O)c3ccc4ccccc4c3)CC2)nc1 + Cc1[nH]c2ccc(F)cc2c1-c1nc2c3cccnc3c3ncccc3c2[nH]1
IC50 (second compound 0.0316 µM): < 0.0316 µM | IC50 (second compound 0.1 µM): < 0.0316 µM | IC50 (second compound 0.316 µM): < 0.0316 µM | IC50 (second compound 1 µM): < 0.0316 µM | IC50 (second compound 3.16 µM): < 0.0316 µM | IC50 (second compound 10 µM): < 0.0316 µM | viability, T/C [1]: 37.6% | viability, T/C [2]: 28.2% | viability, T/C [3]: 30.4% | viability, T/C [4]: 28.5% | viability, T/C [5]: 27.2% | viability, T/C [6]: 30.4% | viability, T/C [7]: 39.1% | viability, T/C [8]: 25.8% | viability, T/C [9]: 25.8% | viability, T/C [10]: 22% | viability, T/C [11]: 29.8% | viability, T/C [12]: 28% | viability, T/C [13]: 38.3% | viability, T/C [14]: 29.6% | viability, T/C [15]: 29.6% | viability, T/C [16]: 27% | viability, T/C [17]: 26.9% | viability, T/C [18]: 25.5% | viability, T/C [19]: 39.1% | viability, T/C [20]: 30.3% | viability, T/C [21]: 29.2% | viability, T/C [22]: 25.8% | viability, T/C [23]: 27.6% | viability, T/C [24]: 29.3% | viability, T/C [25]: 39.5% | viability, T/C [26]: 34.5% | viability, T/C [27]: 29.7% | viability, T/C [28]: 27.1% | viability, T/C [29]: 26.1% | viability, T/C [30]: 27.7% | viability, T/C [31]: 44.2% | viability, T/C [32]: 31.5% | viability, T/C [33]: 29.5% | viability, T/C [34]: 28.9% | viability, T/C [35]: 29.6% | viability, T/C [36]: 29.8%
